Source: US11702422B2, “Imidazopyridazines as modulators of IL-17” (Janssen Pharmaceutica NV, priority 2020, dated 2023)
pIC50: −log10 of the molar value. Where a name gives a salt, the structure may show the parent alone.

Legend:
[1] = tested on: IL-17A-induced G-CSF production in human normal keratinocyte (NHK); assay: NHK Assay: IL-17A-induced G-CSF production in human normal keratinocytes; type: cell-based; details: 24 h, adult normal human keratinocytes, IL-17A 5 ng/mL, simple average if tested more than once
Outline: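 G-CSF released by primary adult human keratinocytes after 24 h at 37° C was quantified by HTRF via standard curve to give IC50. Stimulus was 5 ng/mL IL-17A pre-mixed 1 h at rt with compound dilutions, in 5% FBS and 0.2% DMSO. Cell viability was assessed in parallel with CellTiter-Glo.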

[2] = target: IL-17A(FLAG-Tagged): IL-17RA(His-Tagged) (Homo sapiens, UniProt Q16552, K93Q); assay: IL-17A(FLAG-Tagged): IL-17RA(His-Tagged) Binding Disruption Eu-HTRF Assay; details: IL-17A/IL-17RA binding disruption, simple average if tested more than once
Outline: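 IC50 comes from a one-site competition fit of the HTRF 665/620 nm ratio. Compound dilutions (2-fold, 22 points) were held 1 h rt with FLAG-tagged IL-17A dimer, then His-tagged IL-17RA plus Eu-cryptate anti-FLAG and D2 anti-His antibodies were added for 2 h rt.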

UniProt Q16552, sequence (Q16552 with tags, fused parts or gaps K93Q): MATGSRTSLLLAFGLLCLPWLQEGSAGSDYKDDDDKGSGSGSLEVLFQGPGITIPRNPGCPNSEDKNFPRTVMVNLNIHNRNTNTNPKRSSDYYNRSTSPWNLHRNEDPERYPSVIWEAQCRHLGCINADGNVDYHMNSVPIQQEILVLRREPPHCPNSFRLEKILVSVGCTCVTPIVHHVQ

SMILES | pIC50 [2] | pIC50 ([1]; Homo sapiens, Keratinocyte) | pIC50 [1]
CC(C)n1nccc1C(=O)N[C@H](c1cn2ncc([C@H](NC(=O)CO[C@@H](C)C(F)(F)F)C3CC3)cc2n1)C1CCC(F)(F)CC1 (single isomer, unassigned) [Example 310] | 6.77 | 6.66 | –
O=C(CC(C(F)(F)F)C(F)(F)F)NC(c1cnn2cc([C@@H](NC(=O)c3ccccc3)C3CCC(F)(F)CC3)nc2c1)C1CC1 (single isomer, unassigned) [Example 17, N—((S)-(7-((S*)-Cyclopropyl(4,4,4-trifluoro-3-(trifluoromethyl)butanamido)methyl)imidazo[1,2-b]pyridazin-2-yl)(4,4-difluorocyclohexyl)methyl)benzamide] | 5.89 | – | 5.92
CC(C)n1nccc1C(=O)N[C@H](c1cn2ncc([C@H](NC(=O)COCC(F)F)C3CC3)cc2n1)C1CCC(F)(F)CC1 [Example 305, N—((S)-(7-((R)-Cyclopropyl(2-(2,2-difluoroethoxy)acetamido)methyl)imidazo[1,2-b]pyridazin-2-yl)(4,4-difluorocyclohexyl)methyl)-1-isopropyl-1H-pyrazole-5-carboxamide] | 6.85 | 5.96 | –
CC(C)n1nccc1C(=O)N[C@H](c1cn2ncc([C@H](NC(=O)CC34CC(C3)C4)C3CC3)cc2n1)C1CCC(F)(F)CC1 [Example 248, N—((S)-(7-((R)-(2-(Cicyclo[1.1.1]pentan-1-yl)acetamido)(cyclopropyl)methyl)imidazo[1,2-b]pyridazin-2-yl)(4,4-difluorocyclohexyl)methyl)-1-isopropyl-1H-pyrazole-5-carboxamide] | 7.31 | 7.43 | –
Cn1nccc1C(=O)N[C@H](c1cn2ncc(CNC(=O)[C@@H]3NCCC[C@H]3C(F)(F)F)cc2n1)C1CCCCC1 (relative stereo) [Example 3, (Trans-2R*,3R*)—N-((2-((S)-cyclohexyl(1-methyl-1H-pyrazole-5-carboxamido)methyl)imidazo[1,2-b]pyridazin-7-yl)methyl)-3-(trifluoromethyl)piperidine-2-carboxamide hydrochloride] | 7.01 | 6.52 | –
N#CC1([C@@H](NC(=O)C[C@H]2CC2(F)F)c2cnn3cc([C@@H](NC(=O)c4nonc4C4CC4)C4CCC(F)(F)CC4)nc3c2)CCC1 (relative stereo) [Example 449, N—((S)-(7-((S*)-(1-Cyanocyclobutyl)(2-((S*)-2,2-difluorocyclopropyl)acetamido)methyl)imidazo[1,2-b]pyridazin-2-yl)(4,4-difluorocyclohexyl)methyl)-4-cyclopropyl-1,2,5-oxadiazole-3-carboxamide] | 7.55 | 8.33 | –
CCC(F)(F)CC(=O)N[C@@H](c1cnn2cc([C@@H](NC(=O)c3nonc3C)C3CCC(F)(F)CC3)nc2c1)C1CC1 [Example 338, N—((S)-(7-((R)-Cyclopropyl(3,3-difluoropentanamido)methyl)imidazo[1,2-b]pyridazin-2-yl)(4,4-difluorocyclohexyl)methyl)-4-methyl-1,2,5-oxadiazole-3-carboxamide] | 6.44 | 5.70 | –
CC(C)n1nccc1C(=O)N[C@H](c1cn2ncc([C@H](NC(=O)C[C@@](C)(O)C(F)(F)F)C3CC3)cc2n1)C1CCC(F)(F)CC1 (relative stereo) [Example 132, N—((S)-(7-((R*)-Cyclopropyl((R*)-4,4,4-trifluoro-3-hydroxy-3-methylbutanamido)methyl)imidazo[1,2-b]pyridazin-2-yl)(4,4-difluorocyclohexyl)methyl)-1-isopropyl-1H-pyrazole-5-carboxamide] | 6.66 | 6.59 | –
[2H]C([2H])([2H])C([2H])([2H])n1nccc1C(=O)N[C@H](c1cn2ncc(C(NC(=O)CC3CC(F)(F)C3)C3CCC3)cc2n1)C1CCC(F)(F)CC1 (single isomer, unassigned) [Example 495, N—((S)-(7-((R*)-Cyclobutyl(2-(3,3-difluorocyclobutyl)acetamido)methyl)imidazo[1,2-b]pyridazin-2-yl)(4,4-difluorocyclohexyl)methyl)-1-(ethyl-d5)-1H-pyrazole-5-carboxamide] | 7.40 | – | 6.52
CC(C)n1nccc1C(=O)N[C@H](c1cn2ncc([C@H](NC(=O)COCC(F)(F)F)C3CC3)cc2n1)C1CCC(F)(F)CC1 [Example 303, N—((S)-(7-((R)-Cyclopropyl(2-(2,2,2-trifluoroethoxy)acetamido)methyl)imidazo[1,2-b]pyridazin-2-yl)(4,4-difluorocyclohexyl)methyl)-1-isopropyl-1H-pyrazole-5-carboxamide] | 6.60 | 6.55 | –
Cc1nonc1C(=O)N[C@H](c1cn2ncc(C(CC3CCC3)NC(=O)CC3CC(F)(F)C3)cc2n1)C1CCC(F)(F)CC1 (single isomer, unassigned) [Example 439, N—((S)-(7-((S*)-2-Cyclobutyl-1-(2-(3,3-difluorocyclobutyl)acetamido)ethyl)imidazo[1,2-b]pyridazin-2-yl)(4,4-difluorocyclohexyl)methyl)-4-methyl-1,2,5-oxadiazole-3-carboxamide] | 7.00 | – | 6.82
CC(C)n1nccc1C(=O)N[C@H](c1cn2ncc([C@H](NC(=O)CC3CC(F)(F)C3)C3CC3)cc2n1)C1CCC(F)(F)CC1 [Example 119, N—((S)-(7-((R)-Cyclopropyl(2-(3,3-difluorocyclobutyl)acetamido)methyl)imidazo[1,2-b]pyridazin-2-yl)(4,4-difluorocyclohexyl)methyl)-1-isopropyl-1H-pyrazole-5-carboxamide] | 7.02 | 7.44 | –

The next lines start with results.

pIC50 [2] | SMILES | pIC50 ([1]; Homo sapiens, Keratinocyte) | pIC50 [1]
6.59 | O=C(CCC(F)(F)F)N[C@@H](c1cnn2cc([C@@H](NC(=O)c3ccccc3C(F)F)C3CCC(F)(F)CC3)nc2c1)C1CC1 [Example 187, N—((S)-(7-((R)-Cyclopropyl(4,4,4-trifluorobutanamido)methyl)imidazo[1,2-b]pyridazin-2-yl)(4,4-difluorocyclohexyl)methyl)-2-(difluoromethyl)benzamide] | 6.14 | –
7.28 | O=C(CCC(F)(F)F)N[C@@H](c1cnn2cc([C@@H](NC(=O)c3conc3COC(F)F)C3CCC(F)(F)CC3)nc2c1)C1CC1 [Example 237, N—((S)-(7-((R)-Cyclopropyl(4,4,4-trifluorobutanamido)methyl)imidazo[1,2-b]pyridazin-2-yl)(4,4-difluorocyclohexyl)methyl)-3-((difluoromethoxy)methyl)isoxazole-4-carboxamide] | 7.06 | –
6.30 | O=C(CCC(F)(F)F)N[C@@H](c1cnn2cc([C@@H](NC(=O)c3cccnc3C3CC3)C3CCC(F)(F)CC3)nc2c1)C1CC1 [Example 193, 2-Cyclopropyl-N—((S)-(7-((R)-cyclopropyl(4,4,4-trifluorobutanamido)methyl)imidazo[1,2-b]pyridazin-2-yl)(4,4-difluorocyclohexyl)methyl)nicotinamide] | 5.89 | –
7.15 | O=C(CCC(F)(F)F)NC(c1cnn2cc([C@@H](NC(=O)c3cnn(CC4CC4)n3)C3CCC(F)(F)CC3)nc2c1)C1CC1 (stereo in doubt) [Example 25, N—((S)-(7-((R*)-Cyclopropyl(4,4,4-trifluorobutanamido)methyl)imidazo[1,2-b]pyridazin-2-yl)(4,4-difluorocyclohexyl)methyl)-2-(cyclopropylmethyl)-2H-1,2,3-triazole-4-carboxamide] | 6.46 | –
6.41 | O=C(CCC(F)(F)F)N[C@@H](c1cnn2cc([C@@H](NC(=O)C3(F)CC3)C3CCC(F)(F)CC3)nc2c1)C1CC1 [Example 60, N—((S)-(7-((R)-Cyclopropyl(4,4,4-trifluorobutanamido)methyl)imidazo[1,2-b]pyridazin-2-yl)(4,4-difluorocyclohexyl)methyl)-1-fluorocyclopropane-1-carboxamide] | 5.46 | –
6.66 | O=C(CCC(F)(F)F)N[C@@H](c1cnn2cc([C@@H](NC(=O)c3ncnn3CCF)C3CCC(F)(F)CC3)nc2c1)C1CC1 [Example 57, N—((S)-(7-((R)-Cyclopropyl(4,4,4-trifluorobutanamido)methyl)imidazo[1,2-b]pyridazin-2-yl)(4,4-difluorocyclohexyl)methyl)-1-(2-fluoroethyl)-1H-1,2,4-triazole-5-carboxamide] | 6.11 | –
7.11 | O=C(CC1CC(F)(F)C1)NC(c1cnn2cc([C@@H](NC(=O)c3cnnn3CCC(F)(F)F)C3CCC(F)(F)CC3)nc2c1)C1CC1 (single isomer, unassigned) [Example 72, N—((S)-(7-((S*)-Cyclopropyl(2-(3,3-difluorocyclobutyl)acetamido)methyl)imidazo[1,2-b]pyridazin-2-yl)(4,4-difluorocyclohexyl)methyl)-1-(3,3,3-trifluoropropyl)-1H-1,2,3-triazole-5-carboxamide] | – | 7.07
6.96 | O=C(CCC(F)(F)F)N[C@@H](c1cnn2cc([C@@H](NC(=O)c3cnnn3CCF)C3CCC(F)(F)CC3)nc2c1)C1CC1 [Example 105, N—((S)-(7-((R)-Cyclopropyl(4,4,4-trifluorobutanamido)methyl)imidazo[1,2-b]pyridazin-2-yl)(4,4-difluorocyclohexyl)methyl)-1-(2-fluoroethyl)-1H-1,2,3-triazole-5-carboxamide] | 6.26 | –
